Experimental data published in US20260069728A1, “MULTI-TARGETING COMPOUND AND USE THEREOF” (Chengdu Shetai Medical Technology Co., Ltd., priority 2023, published 2026).
Read-outs that look alike come from different tables or passages of the source.

Key:
[1] = Isoelectric point (PI) measurement; format: physicochemical
[2] = system: SUM149PT human breast cancer cell line; test: Cell uptake and inhibition assay, SUM149PT; format: cell-based; conditions: for cell uptake, comparison of non-inhibition, FAP single, CXCR4 single and dual inhibition groups (in words): FAPI-04 and T140 as inhibitors; for cell uptake over incubation time (in words): non-inhibition group, 15-120 minutes
Protocol: (§1) The cell lines involved in the cell experiments in the test examples include: SUM149PT human breast cancer cell line, HUTU-80 human duodenal adenocarcinoma cell line, and U-118 MG human brain astrocytoma/glioblastoma cell line.
(§2) SUM149PT: Complete medium was formulated using DMEM high-glucose medium, 10% FBS, and a penicillin-streptomycin solution. The cells were cultured in a constant temperature incubator at 37° C. with 5% CO2. The culture medium was regularly replaced, and the cells were passaged. The culture medium was generally changed every 2 to 3 days. The growth of the tumor cells was observed daily under a microscope, including monitoring cell growth status, checking for adherence, examining cell morphology for any abnormalities, checking for contamination, and observing medium color for any abnormalities. Cells were passaged when they reached 80-90% confluence.
(§3) When cell confluence in the culture flask reached 80%, the cells were digested and centrifuged, and the supernatant was removed. An appropriate amount of medium was added to dilute so that each well contained 500 μL of medium for plating. After thorough mixing by pipetting, the cell suspension was seeded into a 24-well plate at a density of 5×10^5 cells per well. The plate was then placed into the incubator for continued growth. The cells were ready for cellular experiments when they reached 80% confluence.
(§4) (1) The cell uptake assay established four incubation time points: 15, 30, 60, and 120 minutes, respectively. For each time point, four groups were set up: non-inhibition group, a first single inhibition group (FAP single inhibition), a second single inhibition group (CXCR4/GRPR/αvβ3 single inhibition), and a dual inhibition group (FAP inhibitor+CXCR4/GRPR/αvβ3 inhibitor). Each group at each time point was set up with 3 triplicate wells.
(§5) (2) Cells were plated into a 24-well plate according to the cell plating procedure described above.
(§6) (3) The original culture medium was removed from the 24-well plate. Then, 400 μL of 100 mg/mL skimmed milk solution was added to each well for blocking for one hour. After removing the skimmed milk solution, each of the wells was washed three times by adding 400 μL of PBS solution. Subsequently, 146 μL of FBS-free medium was added to each well. Next, the non-inhibition group received 4 μL of cold PBS per well, while the first single inhibition group, the second single inhibition group, and the dual inhibition group received the following additions per well according to Table 3: 2 μL of non-radiolabeled first single inhibitor solution and 2 μL of cold PBS: 2 μL of non-radiolabeled second single inhibitor solution and 2 μL of cold PBS; 2 μL of non-radiolabeled first single inhibitor solution (10 mM) and 2 μL of non-radiolabeled second single inhibitor solution (10 mM). The plate was incubated at room temperature for one hour.
(§7) (4) The ^68Ga- and ^177Lu-labeled radioactive ligands were formulated by adding FBS-free medium to achieve a radioligand system concentration of 20 nM. Then, 50 μL of this radioligand system was added to each well. Each group was incubated according to the designated time points: 15, 30, 60, and 120 minutes.
(5) After the incubation was complete, the supernatant was removed, and the wells were washed three times with 400 μL of PBS solution. Then, 200 μL of 1 M NaOH solution was added to each well for cell lysis. […] Each well was then washed once with 400 μL of PBS solution, and this wash solution was also added to the corresponding radioimmunoassay tubes.
(6) The radioactivity in the cells was measured using a γ counter. A bar graph was plotted using GraphPad Prism software. The inhibition rate for each inhibition group was calculated as follows: Inhibition Rate (%)=(1−[Radioactive Count of the Inhibition Group]/[Radioactive Count of the Non-inhibition Group])×100%. […]

[3] = system: SUM149PT human breast cancer cell line; test: Cell saturation binding assay, SUM149PT; conditions: 68Ga-labeled compound
Protocol: (§8) (1) For the cell saturation binding assay, a total of 8 radiolabeled ligand concentrations were set at intervals within the anticipated range. For each concentration, there were 3 groups: the non-inhibition group, the first single inhibition group (FAP single inhibition group), and the second single inhibition group (CXCR4/GRPR/αvβ3 single inhibition group). For each concentration and each group, 3 replicate wells were established.
as §5
(§9) (3) The original culture medium was removed from the 24-well plate. Then, 400 μL of 100 mg/mL skimmed milk solution was added to each well for blocking for one hour. After removing the skimmed milk solution, each of wells was washed three times by adding 400 μL of PBS solution. Subsequently, 146 μL of FBS-free medium was added to each well. Next, the non-inhibition group received 4 μL of cold PBS per well, while the first single inhibition group and the second single inhibition group received the following additions per well according to Table 4: 2 μL of non-radiolabeled first single inhibitor solution and 2 μL of cold PBS; 2 μL of non-radiolabeled second single inhibitor solution and 2 μL of cold PBS. The plate was then incubated at room temperature for one hour.
(§10) (4) The ligands were radiolabeled with 68Ga using the labeling method described previously. Different volumes of FBS-free medium were added to formulate the radioligand systems at corresponding concentrations. Then, 50 μL of the corresponding concentration of the radioligand system was added to each well.
(§11) (5) The supernatant was removed, and the wells were washed three times with 400 μL of PBS. 200 μL of IM NaOH solution was added to each well for cell lysis. […] Each well was washed once with 400 μL of PBS solution, and the washings were sequentially added to the corresponding radioimmunoassay tubes.
(§12) (6) Radioactivity in the cells was measured using a γ counter. The equilibrium dissociation constant (KD) was obtained by fitting the curve using nonlinear regression analysis in GraphPad Prism software. KD is the drug concentration that causes half of the maximum effect (50% receptor occupancy).

[4] = system: U-118 MG human brain astrocytoma/glioblastoma cell line; test: Cell uptake and inhibition assay, U-118 MG; format: cell-based; conditions: for cell uptake over incubation time (in words): all groups, 15-120 minutes; for cell uptake, comparison of non-inhibition, FAP single, integrin αvβ3 single and dual inhibition groups (in words): at 30 minutes, FAPI-04 and RGD as inhibitors
Protocol: as §1
as §2, with “U-118 MG:” for “SUM149PT:”
as §3, §4, §5, §6, §7
(5) After the incubation was complete, the supernatant was removed, and the wells were washed three times with 400 μL of PBS solution. Then, 200 μL of 1 M NaOH solution was added to each well for cell lysis. […]
(6) The radioactivity in the cells was measured using a γ counter. […]

[5] = system: U-118 MG human brain astrocytoma/glioblastoma cell line; test: Cell saturation binding assay, U-118 MG; conditions: 68Ga-labeled compound
Protocol: as §8, §5, §9, §10, §11, §12

[6] = conclusion from inhibition groups
[7] = FAPI-04 solution, read-out: KD value, First single inhibition group (FAP single inhibition)
[8] = T140 solution (CXCR4 inhibitor), read-out: KD value, Second single inhibition group (CXCR4/GRPR/αvβ3 single inhibition)
[9] = read-out: KD value, Non-inhibition group
[10] = RGD solution (integrin αvβ3 inhibitor), read-out: KD value, Second single inhibition group (CXCR4/GRPR/αvβ3 single inhibition)

What does the source list for `CN1C(=O)[C@@H](Cc2ccc(O)cc2)NC(=O)CNC(=O)[C@H](Cc2ccc3ccccc3c2)NC(=O)[C@H](CCCNC(=N)N)NC(=O)[C@H]1CCCNC(=O)c1ccc(CNC(=O)[C@H](CCCCNC(=O)CN2CCN(CC(=O)O)CCN(CC(=O)O)CCN(CC(=O)O)CC2)NC(=O)CCC(=O)NCCOCCOCC(=O)NCCOCCOCC(=O)N2CCN(CCCOc3ccc4nccc(C(=O)NCC(=O)N5CC(F)(F)C[C@H]5C#N)c4c3)CC2)cc1` [SDYD05, DOTA-FAPI-Pentixafor]?
PI range of series of peaks ([1]; unlabeled compound): 6.617-7.126; cell uptake, comparison of non-inhibition, FAP single, CXCR4 single and dual inhibition groups (in words) [2]: non-inhibition group exhibited the highest cell uptake, followed by the FAP single inhibition group, while the dual inhibition group showed the lowest uptake rate; specific binding to CXCR4 protein (in words) [2, 6]: can rapidly and efficiently bind specifically to the CXCR4 protein; specific binding to fibroblast activation protein (in words) [2, 6]: bind specifically to fibroblast activation protein to a certain extent; cell uptake over incubation time (in words) [2]: slowly increased and reached a plateau from 15 to 120 minutes; KD values / binding affinity to the receptors (in words) [3]: relatively low KD values; Kd [3, 7]: 0.373 ± 0.035 nM; Kd [3, 8]: 1.99 ± 0.312 nM; Kd [3, 9]: 0.217 ± 0.018 nM

For `CCCCCC(=O)N[C@@H]1CSCc2cc(CSCCNC(=O)COCCOCCNC(=O)COCCOCCNC(=O)CSC3CC(=O)N(CCC(=O)N[C@H](CCCCNC(=O)CN4CCN(CC(=O)O)CCN(CC(=O)O)CCN(CC(=O)O)CC4)C(=O)NCc4ccc(C(=O)NCCC[C@@H]5C(=O)N[C@@H](CCCNC(=N)N)C(=O)N[C@@H](Cc6ccc7ccccc7c6)C(=O)NCC(=O)N[C@H](Cc6ccc(O)cc6)C(=O)N5C)cc4)C3=O)cc(c2)CSC[C@@H](C(=O)O)NC(=O)[C@H](Cc2ccccc2)NC(=O)[C@H](CCC(N)=O)NC(=O)C([C@@H](C)O)NC(=O)[C@@H]2CCCN2C(=O)[C@@H]2CCCN2C1=O` (stereo partly shown) [SDYD06], which “behaviour of sample prepared in pure water during isoelectric point measurement” value ([1]; pure water) is on record?
Its value is “insoluble substance formed”.

And the “cell uptake, comparison of non-inhibition, FAP single, CXCR4 single and dual inhibition groups (in words)” value [2]?
The value was “from high to low, were as follows: non-inhibition group, FAP single inhibition group, CXCR4 single inhibition group, and dual inhibition group”.

And the “cell uptake over incubation time (in words)” value [2]?
Its value is “slowly increased and reached a plateau from 15 to 120 minutes”.

And the “KD values / binding affinity to the receptors (in words)” value [3]?
The value was “relatively low KD values”.

And the Kd [3, 7]?
Its Kd is 0.455 ± 0.056 nM.

What about the Kd [3, 8] of the same compound?
Its Kd is 0.173 ± 0.012 nM.

What about the Kd [3, 9] of the same compound?
The Kd was 1.41 ± 0.213 nM.

Which results are given for `N#C[C@@H]1CC(F)(F)CN1C(=O)CNC(=O)c1ccnc2ccc(OCCCN3CCN(C(=O)[C@H](CCCCNC(=O)CCN4C(=O)CC(SCC(=O)NCCOCCOCCOCCOCCC(=O)NCCCC[C@@H]5NC(=O)[C@@H](Cc6ccc(O)cc6)NC(=O)[C@H](CC(=O)O)NC(=O)CNC(=O)[C@H](CCCNC(=N)N)NC5=O)C4=O)NC(=O)CCC(C(=O)O)N4CCN(CC(=O)O)CCN(CC(=O)O)CCN(CC(=O)O)CC4)CC3)cc12` (stereo partly shown) [SDYD07]?
Main peak's PI ([1]; unlabeled compound): 4.809; cell uptake over incubation time (in words) [4]: increased significantly within the first 15 minutes, and then slowly increased; cell uptake, comparison of non-inhibition, FAP single, integrin αvβ3 single and dual inhibition groups (in words) [4]: from high to low, were as follows: non-inhibition group, FAP single inhibition group, integrin αvβ3 single inhibition group, and dual inhibition group; KD values / binding affinity to the receptors (in words) [5]: relatively low KD values; Kd [5, 7]: 7.1 ± 1.06 nM; Kd [5, 10]: 7.62 ± 0.923 nM; Kd [5, 9]: 10.5 ± 1.87 nM

Which results are given for `CCCCCC(=O)N[C@H]1CSCc2cc(CSCCNC(=O)[C@H](CCCCNC(=O)CCN3C(=O)CC(SCC(=O)NCCOCCOCCOCCOCCC(=O)NCCCC[C@@H]4NC(=O)[C@@H](Cc5ccc(O)cc5)NC(=O)[C@H](CC(=O)O)NC(=O)CNC(=O)[C@H](CCCNC(=N)N)NC4=O)C3=O)NC(=O)CCC(C(=O)O)N3CCN(CC(=O)O)CCN(CC(=O)O)CCN(CC(=O)O)CC3)cc(c2)CSC[C@@H](C(=O)O)NC(=O)[C@H](Cc2ccccc2)NC(=O)[C@H](CCC(N)=O)NC(=O)C([C@@H](C)O)NC(=O)[C@@H]2CCCN2C(=O)[C@@H]2CCCN2C1=O` (stereo partly shown) [SDYD08]?
Main peak's PI ([1]; unlabeled compound): 2.916; cell uptake over incubation time (in words) [4]: increased significantly within the first 15 minutes; cell uptake, comparison of non-inhibition, FAP single, integrin αvβ3 single and dual inhibition groups (in words) [4]: from high to low, were as follows: non-inhibition group, FAP single inhibition group, integrin αvβ3 single inhibition group, and dual inhibition group; specific binding to fibroblast activation protein and integrin αvβ3 (in words) [4, 6]: can specifically bind to fibroblast activation protein and integrin αvβ3; KD values / binding affinity to the receptors (in words) [5]: relatively low KD values; Kd [5, 7]: 7.12 ± 0.558 nM; Kd [5, 10]: 10.5 ± 1.06 nM; Kd [5, 9]: 8.43 ± 0.475 nM
